In US12365674B2, “Inhibitors of histone deacetylase useful for the treatment or prevention of HIV infection” (Merck Sharp & Dohme LLC, priority 2019, dated 2025):

target: T1, human HDAC3/SMRT heterodimer (Homo sapiens, UniProt O15379); test: Human HDAC enzyme inhibitor Fluor-de-Lys assay, HDAC3/SMRT; format: biochemical; settings: HDAC3/SMRT 0.3 nM enzyme, 20 μM substrate BML-KI104, 10 μM IP4, 3 h pre-incubation, 60 min reaction; read-out: HDAC3_IC50
T1 construct: Full length human HDAC3-FLAG was expressed in HEK-293F cells along with SMRT; host or cells: HEK-293F cells
From the text: Recombinant human HDAC8 (catalog number BML-SE145-0100) and HDAC10 (catalog number BML-SE559-0050) enzymes, HDAC substrates BML-KI104 and BML-KI178, and HDAC developer solutions BML-KI105 and BML-KI176 were purchased from Enzo Life Sciences (Farmingdale, NY). Recombinant human HDAC5 and HDAC11 were purchased from BPS Bioscience (San Diego, CA)(catalog numbers 50045 and 50021). Substrate Boc-Lys(TFA)-AMC was obtained from Bachem (Bupendorf, Switzerland) (catalog number 1-1985). HDAC inhibitor suberoylanilide hydroxamic acid (SAHA) was obtained from Indofine (Hillsborough Township, NJ) and trichostatin A (TSA) was obtained from Sigma-Aldrich (St. Louis, MO). […] HEPES pH 8.0 was obtained from Boston BioProducts (Ashland, MA), Tween-20 from Fisher Scientific (Hampton, NH)(catalog number BP337), TCEP from Calbiochem and 7.5% bovine serum albumin (BSA) from Life Technologies (Carlsbad, CA) (catalog number 15260037). 384-well, black assay plates were obtained from Corning (Corning, NY) (catalog number 3575).
Recombinant human HDAC1, HDAC2, and HDAC3/SMRT heterodimer were prepared by Merck Research Laboratories. […] The eluted protein was then passed over an anti-HDAC1 immunoaffinity column to remove any complexes containing HDAC1. […]
The histone deacetylase activities of HDAC1, HDAC2, HDAC3, HDAC6, and HDAC8 were measured in modified Fluor-de-Lys assays in 384-well format. In this assay, HDAC enzymes are initially incubated with an ε-acetyl (or -trifluoroacetyl)-L-lysine-containing substrate with a C-terminal amide having aminomethylcoumarin as the amine component. HDACs cleave the ε-acetyl group, rendering the resulting product susceptible to AMC cleavage by trypsin. The released AMC is then detected by its fluorescence.
The HDAC 1, 2 assays employed buffer A, which contained 20 mM HEPES, pH 8.0, 1 mM MgCl2, 137 mM NaCl, 2.7 mM KCl, 0.05% BSA. The HDAC3/SMRT assay employed buffer B, consisting of 20 mM HEPES, pH 8.0, 1 mM MgCl2, 50 mM NaCl, 2.7 mM KCl, 0.05% BSA, 0.005% Tween 20, and 10 μM IP4. The HDAC6 assay employed buffer C, consisting of 20 mM HEPES, pH 8.0, 1 mM MgCl2, 137 mM NaCl, 2.7 mM KCl, 0.5 mM TCEP (Calbiochem) and 0.05% BSA. The HDAC8 assay employed buffer D, consisting of 20 mM HEPES, pH 8.0, 1 mM MgCl2, 100 mM NaCl, 20 mM KCl, 0.1% n-octyl-β-D-glucoside (Anatrace, Maumee, OH) and 0.05% BSA. All steps were performed at room temperature (23° C.). The assay was performed by pre-incubating serial dilutions of test compounds with the target HDAC prior to initiation with substrate. Each compound was titrated in a 10-point dose response, using a 1:3 fold dilution scheme, with 0.15 ul of solution added by ECHO555 to the plate, followed by the addition of 20 μl of the appropriate HDAC isoform diluted in appropriate assay buffer. […] Final conditions used for each assay were: 1. HDAC 1, 0.3 nM total enzyme, 20 μM substrate BML-K1104; 2. HDAC 2, 1.5 nM total enzyme, 40 μM substrate BML-K1104; 3. HDAC 3/SMRT, 0.3 nM total enzyme, 20 μM substrate BML-K1104; 4. HDAC 6, 1.3 nM total enzyme, 2.5 μM substrate BML-K1104; 5. HDAC 8, 1.3 nM total enzyme, 200 μM substrate BML-K1178; the final high dose of test compound was 30 μM. […] The reactions were stopped and developed by addition of 30 ul of HDAC developer solution containing a saturating level of HDAC inhibitor as follows: 1.

T1 sequence (O15379 whole entry): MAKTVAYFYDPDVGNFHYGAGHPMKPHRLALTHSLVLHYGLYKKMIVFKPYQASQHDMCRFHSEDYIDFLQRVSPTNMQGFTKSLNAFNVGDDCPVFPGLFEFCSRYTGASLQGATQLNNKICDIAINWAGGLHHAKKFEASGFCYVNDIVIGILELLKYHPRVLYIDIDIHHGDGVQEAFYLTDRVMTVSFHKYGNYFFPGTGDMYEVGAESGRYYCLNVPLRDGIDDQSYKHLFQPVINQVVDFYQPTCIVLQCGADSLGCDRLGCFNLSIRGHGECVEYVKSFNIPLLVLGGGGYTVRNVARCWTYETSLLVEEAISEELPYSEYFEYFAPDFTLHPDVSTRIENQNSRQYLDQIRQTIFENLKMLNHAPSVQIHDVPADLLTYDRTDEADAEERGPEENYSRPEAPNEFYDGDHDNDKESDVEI
T1 sequence (Q9Y618 1-899 partner limits assumed): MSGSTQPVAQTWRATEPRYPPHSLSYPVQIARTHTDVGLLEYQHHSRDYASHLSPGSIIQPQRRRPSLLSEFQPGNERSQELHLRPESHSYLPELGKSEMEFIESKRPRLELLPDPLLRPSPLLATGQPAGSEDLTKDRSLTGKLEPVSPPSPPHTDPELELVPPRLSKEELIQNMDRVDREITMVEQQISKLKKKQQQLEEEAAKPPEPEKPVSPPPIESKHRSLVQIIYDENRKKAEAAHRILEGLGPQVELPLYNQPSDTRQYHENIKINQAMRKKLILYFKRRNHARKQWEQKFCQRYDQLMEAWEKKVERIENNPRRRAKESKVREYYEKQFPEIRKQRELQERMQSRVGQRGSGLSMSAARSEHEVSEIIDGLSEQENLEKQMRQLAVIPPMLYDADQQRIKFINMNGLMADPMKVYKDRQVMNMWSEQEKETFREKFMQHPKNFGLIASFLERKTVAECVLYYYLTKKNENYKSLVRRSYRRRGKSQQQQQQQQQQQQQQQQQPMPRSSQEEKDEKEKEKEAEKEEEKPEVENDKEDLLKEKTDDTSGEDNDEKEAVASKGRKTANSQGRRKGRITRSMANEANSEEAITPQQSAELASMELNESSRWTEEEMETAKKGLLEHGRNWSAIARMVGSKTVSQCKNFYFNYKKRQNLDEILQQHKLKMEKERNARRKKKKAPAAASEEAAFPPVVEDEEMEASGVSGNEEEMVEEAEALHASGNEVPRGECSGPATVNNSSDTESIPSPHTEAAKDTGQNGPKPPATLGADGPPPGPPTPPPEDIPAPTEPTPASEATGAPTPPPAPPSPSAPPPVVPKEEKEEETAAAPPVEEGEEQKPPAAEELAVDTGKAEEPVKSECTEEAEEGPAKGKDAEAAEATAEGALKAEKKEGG

`CN1CC(C(=O)N[C@@H](COCCCC(=O)c2ccon2)c2[nH]c(-c3ccc(F)cc3)nc2Cl)C1` [Compound 16, N-[(1R)-1-[4-chloro-2-(4-fluorophenyl)-1H-imidazol-5-yl]-2-(4-isoxazol-3-yl-4-oxobutoxy)ethyl]-1-methylazetidine-3-carboxamide] was tested. Which IC50 did it give?
Its IC50 is 9.2 nM.

Which IC50 does the source give for `CNC(=O)C(=O)CCCOC[C@H](NC(=O)C12CCN(CC1)CC2)c1ncc(-c2cc3ccccc3nc2OC)[nH]1` [Compound 9, N-[(1R)-1-[5-(2-methoxyquinolin-3-yl)-1H-imidazol-2-yl]-2-{[5-(methylamino)-4,5-dioxopentyl]oxy}ethyl]-1-azabicyclo[2.2.2]octane-4-carboxamide] here?
Its IC50 is 1.5 nM.

How did the IC50 turn out when `CN1CCC2(CC1)C[C@@H]2C(=O)N[C@@H](COCCCC(=O)c1ccon1)c1[nH]c(-c2ccc(F)cc2)nc1Cl` [Compound 18, (1S)-N-[(1R)-1-[4-chloro-2-(4-fluorophenyl)-1H-imidazol-5-yl]-2-(4-isoxazol-3-yl-4-oxobutoxy)ethyl]-6-methyl-6-azaspiro[2.5]octane-1-carboxamide] was run?
Its IC50 is 1.3 nM.

How did the IC50 turn out when `Cc1ccc2cc(-c3cnc([C@H](CSCCCC(=O)c4ncco4)NC(=O)[C@H]4CC45CCN(C)CC5)[nH]3)ccc2n1` [Compound 21, (1S)-6-methyl-N-[(1R)-1-[5-(2-methylquinolin-6-yl)-1H-imidazol-2-yl]-2-{[4-(1,3-oxazol-2-yl)-4-oxobutyl]sulfanyl}ethyl]-6-azaspiro[2.5]octane-1-carboxamide] was run?
The IC50 was 1.5 nM.

For `CCC(=O)CCCOC[C@H](NC(=O)C12CCN(CC1)CC2)c1ncc(-c2cc3ccccc3nc2OC)[nH]1` [Compound 6, N-{(1R)-1-[5-(2-methoxyquinolin-3-yl)-1H-imidazol-2-yl]-2-[(4-oxohexyl)oxy]ethyl}-1-azabicyclo[2.2.2]octane-4-carboxamide], which IC50 is on record?
The IC50 was 87.3 nM.

How did the IC50 turn out when `CN(C)CC(=O)N[C@@H](COCCCC(=O)c1ccon1)c1[nH]c(-c2ccc(F)cc2)nc1Cl` [Compound 17, N-[(1R)-1-[4-chloro-2-(4-fluorophenyl)-1H-imidazol-5-yl]-2-(4-isoxazol-3-yl-4-oxobutoxy)ethyl]-N~2~,N~2~- dimethylglycinamide] was run?
Its IC50 is 17 nM.

How did the IC50 turn out when `CNC(=O)C(=O)CCCOC[C@H](NC(=O)c1cncs1)c1ncc(-c2cc3ccccc3nc2OC)[nH]1` [Compound 8, N-[(1R)-1-[5-(2-methoxyquinolin-3-yl)-1H-imidazol-2-yl]-2-{[5-(methylamino)-4,5-dioxopentyl]oxy}ethyl]-1,3-thiazole-5-carboxamide] was run?
The IC50 was 1.5 nM.

Which IC50 does the source give for `COc1nc2ccccc2cc1-c1cnc([C@H](COCCCC(=O)c2ncco2)NC(=O)CN(C)C)[nH]1` [Compound 13, N-{(1R)-1-[5-(2-methoxyquinolin-3-yl)-1H-imidazol-2-yl]-2-[4-(1,3-oxazol-2-yl)-4-oxobutoxy]ethyl}-N~2~,N~2~- dimethylglycinamide] here?
Its IC50 is 3.8 nM.

`COc1nc2ccccc2cc1-c1cnc([C@H](COCCCC(=O)c2ncco2)NC(=O)c2cncs2)[nH]1` [Compound 10, N-{(1R)-1-[5-(2-methoxyquinolin-3-yl)-1H-imidazol-2-yl]-2-[4-(1,3-oxazol-2-yl)-4-oxobutoxy]ethyl}-1,3-thiazole-5-carboxamide] was tested. Which IC50 did it give?
Its IC50 is 3.6 nM.

For `COc1nc2ccccc2cc1-c1cnc([C@H](COCCCC(=O)c2ncco2)NC(=O)[C@H]2CC23CCN(C)CC3)[nH]1` [Compound 11, (1S)-N-{(1R)-1-[5-(2-methoxyquinolin-3-yl)-1H-imidazol-2-yl]-2-[4-(1,3-oxazol-2-yl)-4-oxobutoxy]ethyl}-6-methyl-6-azaspiro[2.5]octane-1-carboxamide], which IC50 is on record?
The IC50 was 5 nM.

With `COc1cc2nc(C)ccc2cc1-c1cnc([C@H](COCCCC(=O)c2cc(C)on2)NC(=O)C2CN(C)C2)[nH]1` [Compound 19, N-{(1R)-1-[5-(7-methoxy-2-methylquinolin-6-yl)-1H-imidazol-2-yl]-2-[4-(5-methylisoxazol-3-yl)-4-oxobutoxy]ethyl}-1-methylazetidine-3-carboxamide] as the molecule, how does the IC50 read?
Its IC50 is 1.3 nM.

With `N[C@@H](COCCCC(=O)c1ccon1)c1ncc(-c2ccccc2F)[nH]1` [Compound 2, (R)-4-(2-amino-2-(5-(2-fluorophenyl)-1H-imidazol-2-yl)ethoxy)-1-(isoxazol-3-yl)butan-1-one] as the molecule, how does the IC50 read?
Its IC50 is 272 nM.

Which IC50 does the source give for `COc1nc2ccccc2cc1-c1cnc([C@@H](N)COCCCC(=O)c2ncco2)[nH]1` [Compound 1, (R)-4-(2-amino-2-(5-(2-methoxyquinolin-3-yl)-1H-imidazol-2-yl)ethoxy)-1-(oxazol-2-yl)butan-1-one] here?
Its IC50 is 185 nM.

For `COc1nc2ccccc2cc1-c1cnc([C@H](COCCCC(=O)c2ccon2)NC(=O)CN(C)C)[nH]1` [Compound 14, N-{(1R)-2-(4-isoxazol-3-yl-4-oxobutoxy)-1-[5-(2-methoxyquinolin-3-yl)-1H-imidazol-2-yl]ethyl}-N~2~,N~2~- dimethylglycinamide], which IC50 is on record?
The IC50 was 2.2 nM.

How did the IC50 turn out when `CN1CC(C(=O)N[C@@H](COCCCC(=O)c2ccon2)c2ncc(-c3ccccc3F)[nH]2)C1` [Compound 15, N-[(1R)-1-[5-(2-fluorophenyl)-1H-imidazol-2-yl]-2-(4-isoxazol-3-yl-4-oxobutoxy)ethyl]-1-methylazetidine-3-carboxamide] was run?
The IC50 was 1.6 nM.

Which IC50 does the source give for `COc1nc2ccccc2cc1-c1cnc([C@H](COCCCC(=O)c2ncco2)NC(=O)C23CCN(CC2)CC3)[nH]1` [Compound 12, N-{(1R)-1-[5-(2-methoxyquinolin-3-yl)-1H-imidazol-2-yl]-2-[4-(1,3-oxazol-2-yl)-4-oxobutoxy]ethyl}-1-azabicyclo[2.2.2]octane-4-carboxamide] here?
The IC50 was 7.7 nM.

How did the IC50 turn out when `COc1cc2nc(C)ccc2cc1-c1cnc([C@H](COCCCC(=O)c2cc(C)on2)NC(=O)[C@H]2CC23CCN(C)CC3)[nH]1` [Compound 20, (1S)-N-{(1R)-1-[5-(7-methoxy-2-methylquinolin-6-yl)-1H-imidazol-2-yl]-2-[4-(5-methylisoxazol-3-yl)-4-oxobutoxy]ethyl}-6-methyl-6-azaspiro[2.5]octane-1-carboxamide] was run?
The IC50 was 0.8 nM.
